Data as given in ChEMBL document CHEMBL4261621, “Synthesis of enamino-2-oxindoles via conjugate addition between α-azido ketones and 3-alkenyl oxindoles: Cytotoxicity evaluation and apoptosis inducing studies” (Bioorg Med Chem Lett, 2018).
Activity calls are given as the source filed them. The calls are words filed in the database; no cut-off is given here.

Columns and labels:
NCI-H460 [1] = test: Induction of apoptosis in human NCI-H460 cells assessed as viable cells at 2.5 uM after 72 hrs by Annexin V-alexa fluor 488/propidium iodide staining based flow cytometry (reference value: 98.55%); format: functional; settings: NCI-H460, 72 h, read-out: Activity
NCI-H460 [2] = test: Cytotoxicity against human NCI-H460 cells assessed as reduction in cell viability after 72 hrs by phase contrast microscopic analysis; format: functional, cell-based
NCI-H460 [3] = test: Cell cycle arrest in human NCI-H460 cells assessed as accumulation at G0/G1 phase at 10 uM after 24 hrs by propidium iodide staining based flow cytometry (reference value: 49.6%); format: functional
NCI-H460 [4] = test: Induction of apoptosis in human NCI-H460 cells assessed as late apoptotic cells at 2.5 uM after 72 hrs by Annexin V-alexa fluor 488/propidium iodide staining based flow cytometry (reference value: 0.34%); format: functional
NCI-H460 [5] = test: Induction of apoptosis in human NCI-H460 cells assessed as increase in late apoptotic cells after 72 hrs by Annexin V-alexa fluor 488/propidium iodide staining based flow cytometry; format: functional, cell-based
NCI-H460 [6] = test: Cell cycle arrest in human NCI-H460 cells assessed as accumulation at G2/M phase at 2.5 uM after 24 hrs by propidium iodide staining based flow cytometry (reference value: 35.49%); format: functional
NCI-H460 [7] = test: Cell cycle arrest in human NCI-H460 cells assessed as accumulation at sub-G1 phase at 1 uM after 24 hrs by propidium iodide staining based flow cytometry (reference value: 0.99%); format: functional
NCI-H460 [8] = test: Induction of apoptosis in human NCI-H460 cells assessed as appearance of condensed nuclei at 0.25 to 10 uM after 72 hrs by DAPI staining based fluorescence microscopic analysis; format: functional, cell-based
HCT-116 [9] = test: Cytotoxicity against human HCT116 cells at 30 uM after 48 hrs by MTT assay relative to control; format: functional
NCI-H460 [10] = test: Cell cycle arrest in human NCI-H460 cells assessed as accumulation at G0/G1 phase at 5 uM after 24 hrs by propidium iodide staining based flow cytometry (reference value: 49.6%); format: functional
NCI-H460 [11] = test: Induction of apoptosis in human NCI-H460 cells assessed as increase in early apoptotic cells after 72 hrs by Annexin V-alexa fluor 488/propidium iodide staining based flow cytometry; format: functional, cell-based
NCI-H460 [12] = test: Induction of apoptosis in human NCI-H460 cells assessed as chromatin condensation at 0.25 to 10 uM after 72 hrs by acridine orange/ethidium bromide staining based fluorescence microscopic analysis; format: functional, cell-based
NCI-H460 [13] = test: Induction of apoptosis in human NCI-H460 cells assessed as reduction in cell number at 0.25 to 10 uM after 72 hrs by acridine orange/ethidium bromide staining based fluorescence microscopic analysis; format: functional
NCI-H460 [14] = test: Induction of apoptosis in human NCI-H460 cells assessed as membrane blebbing at 0.25 to 10 uM after 72 hrs by acridine orange/ethidium bromide staining based fluorescence microscopic analysis; format: functional, cell-based
NCI-H460 [15] = test: Cell cycle arrest in human NCI-H460 cells assessed as accumulation at G2/M phase at 5 uM after 24 hrs by propidium iodide staining based flow cytometry (reference value: 35.49%); format: functional
HCT-15 [16] = test: Cytotoxicity against human HCT15 cells after 72 hrs by MTT assay; format: functional, cell-based; settings: HCT-15, 72 h
NCI-H460 [17] = test: Induction of apoptosis in human NCI-H460 cells assessed as cell shrinkage at 0.25 to 10 uM after 72 hrs by acridine orange/ethidium bromide staining based fluorescence microscopic analysis; format: functional
NCI-H460 [18] = test: Cell cycle arrest in human NCI-H460 cells assessed as accumulation at sub-G1 phase at 5 uM after 24 hrs by propidium iodide staining based flow cytometry (reference value: 0.99%); format: functional
MDA-MB-231 [19] = test: Cytotoxicity against human MDA-MB-231 cells after 72 hrs by MTT assay; format: functional, cell-based; settings: MDA-MB-231, 72 h
MDA-MB-231 [20] = test: Cytotoxicity against human MDA-MB-231 cells at 30 uM after 48 hrs by MTT assay relative to control; format: functional
NCI-H460 [21] = test: Induction of apoptosis in human NCI-H460 cells assessed as late apoptotic cells at 5 uM after 72 hrs by Annexin V-alexa fluor 488/propidium iodide staining based flow cytometry (reference value: 0.34%); format: functional
HCT-15 [22] = test: Cytotoxicity against human HCT15 cells at 30 uM after 48 hrs by MTT assay relative to control; format: functional
NCI-H460 [23] = test: Cell cycle arrest in human NCI-H460 cells assessed as accumulation at G2/M phase at 10 uM after 24 hrs by propidium iodide staining based flow cytometry (reference value: 35.49%); format: functional
NCI-H460 [24] = test: Induction of apoptosis in human NCI-H460 cells assessed as apoptotic body formation at 0.25 to 10 uM after 72 hrs by acridine orange/ethidium bromide staining based fluorescence microscopic analysis; format: functional, cell-based
HeLa = test: Cytotoxicity against human HeLa cells at 30 uM after 48 hrs by MTT assay relative to control; format: functional
NCI-H460 [25] = test: Induction of apoptosis in human NCI-H460 cells assessed as late apoptotic cells at 1 uM after 72 hrs by Annexin V-alexa fluor 488/propidium iodide staining based flow cytometry (reference value: 0.34%); format: functional
NCI-H460 [26] = test: Induction of apoptosis in human NCI-H460 cells assessed as late apoptotic cells at 10 uM after 72 hrs by Annexin V-alexa fluor 488/propidium iodide staining based flow cytometry (reference value: 0.34%); format: functional
NCI-H460 [27] = test: Cell cycle arrest in human NCI-H460 cells assessed as accumulation at G2/M phase at 1 uM after 24 hrs by propidium iodide staining based flow cytometry (reference value: 35.49%); format: functional
NCI-H460 [28] = test: Induction of apoptosis in human NCI-H460 cells assessed as appearance of horse-shoe shaped nuclei at 0.25 to 10 uM after 72 hrs by DAPI staining based fluorescence microscopic analysis; format: functional, cell-based
HCT-116 [29] = test: Cytotoxicity against human HCT116 cells after 72 hrs by MTT assay; format: functional, cell-based; settings: HCT-116, 72 h
NCI-H460 [30] = test: Induction of apoptosis in human NCI-H460 cells assessed as early apoptotic cells at 5 uM after 72 hrs by Annexin V-alexa fluor 488/propidium iodide staining based flow cytometry (reference value: 0.77%); format: functional
NCI-H460 [31] = test: Induction of mitochondrial membrane potential loss in human NCI-H460 cells assessed as increase in depolarized cell population after 72 hrs by JC1 staining based flow cytometry; format: functional
NCI-H460 [32] = test: Cell cycle arrest in human NCI-H460 cells assessed as accumulation at S phase at 2.5 uM after 24 hrs by propidium iodide staining based flow cytometry (reference value: 9.93%); format: functional
NCI-H460 [33] = test: Induction of apoptosis in human NCI-H460 cells assessed as early apoptotic cells at 2.5 uM after 72 hrs by Annexin V-alexa fluor 488/propidium iodide staining based flow cytometry (reference value: 0.77%); format: functional
NCI-H460 [34] = test: Induction of apoptosis in human NCI-H460 cells assessed as viable cells at 5 uM after 72 hrs by Annexin V-alexa fluor 488/propidium iodide staining based flow cytometry (reference value: 98.55%); format: functional; settings: NCI-H460, 72 h, read-out: Activity
NCI-H460 [35] = test: Induction of apoptosis in human NCI-H460 cells assessed as viable cells at 1 uM after 72 hrs by Annexin V-alexa fluor 488/propidium iodide staining based flow cytometry (reference value: 98.55%); format: functional; settings: NCI-H460, 72 h, read-out: Activity

In the case of CCOC(=O)/C(=C(\N)C(=O)c1ccccc1)C1C(=O)N(C)c2ccc(F)cc21 (stereo unspecified), the viability at 2.5 µM (NCI-H460 [1]) is reported as 75.9%, the Activity (NCI-H460 [2]) is reported as “Dose-dependent effect” and the Activity (NCI-H460 [3]) is reported as 9.18%. The Activity (NCI-H460 [4]) was 4.4%, the Activity (NCI-H460 [5]) was “Dose-dependent effect” and the Activity (NCI-H460 [6]) was 64.03%. The Activity (NCI-H460 [7]) was 9.93%, the Activity (NCI-H460 [8]) was “Active” and the Activity (HCT-116 [9]) was >50%. For the same compound, the Activity (NCI-H460 [10]) was 11.17%, the Activity (NCI-H460 [11]) was “Dose-dependent effect” and the Activity (NCI-H460 [12]) was “Active”. For the same compound, the Activity (NCI-H460 [13]) was “Active”, the Activity (NCI-H460 [14]) was “Active” and the Activity (NCI-H460 [15]) was 65.46%. The IC50 (HCT-15 [16]) was 2.97 µM, the Activity (NCI-H460 [17]) was “Active” and the Activity (NCI-H460 [18]) was 11.94%. For the same compound, the IC50 (MDA-MB-231 [19]) was 6.27 µM, the Activity (MDA-MB-231 [20]) was >50% and the Activity (NCI-H460 [21]) was 3.27%. The Activity (HCT-15 [22]) was >50%, the Activity (NCI-H460 [23]) was 67.37% and the Activity (NCI-H460 [24]) was “Active”. For the same compound, the Activity (HeLa) was >50%, the Activity (NCI-H460 [25]) was 3.15% and the Activity (NCI-H460 [26]) was 1.78%. The Activity (NCI-H460 [27]) was 61.59%, the Activity (NCI-H460 [28]) was “Active” and the IC50 (HCT-116 [29]) was 5.14 µM. For the same compound, the Activity (NCI-H460 [30]) was 35.42%, the Activity (NCI-H460 [31]) was “Dose-dependent effect” and the Activity (NCI-H460 [32]) was 64.98%. The Activity (NCI-H460 [33]) was 19.4%, the viability at 5 µM (NCI-H460 [34]) was 61.1% and the viability at 1 µM (NCI-H460 [35]) was 87.9%.
